Assay results taken from PMC10763817, “Development of dual enzyme responsive molecular AND logic gate” (Turkish Journal of Chemistry, 2021).

System: T1, tyrosinase (mushroom tyrosinase, EC 1.14.18.1)
T1 construct: gene PPO3; commercial native enzyme from mushroom (Sigma)
Assay: fluorescence of released resorufin (ex […] nm, em […] nm), Lineweaver-Burk plot
Format: biochemical
Conditions: tyrosinase 3 U/mL alone, no esterase; 10-50 μM compound 2; PBS pH 7.4, 37 °C

- Km: 44.3 µM
SMILES: CC(=O)Oc1cccc(COc2ccc3nc4ccc(=O)cc-4oc3c2)c1 [compound 2, 3-(((3-oxo-3H-phenoxazin-7-yl)oxy)methyl)phenyl acetate]
